In patent US20240109853A1 (Shanghai Yao Yuan Biotechnology Co., Ltd., priority 2020, published 2024) one finds IC50 data, which are given here for 29 compounds.

Counter-ions that a name gives are not always drawn. Like-named read-outs stand apart in the source and are kept apart here.

The target of this assay is ALPK1 (Homo sapiens (Human), UniProt Q96QP1). Briefly: ALPK1 in vitro kinase assay (HTRF of TIFA phosphorylation). The format is biochemical. The source says:
In embodiments, a compound of Formula I, or a subembodiment described herein, is an inhibitor of ALPK1 as measured, for example, in an in vitro kinase assay, or an assay designed to measure the activation of downstream targets of ALPK1 pathway activation, for example NFkB transcriptional activation and the secretion of proinflammatory cytokines and chemokines, such as IL-8, which is also referred to as CXCL-8. In general, the computer program XL fit was used for data analysis, including non-linear regression analysis. The half maximal inhibitory concentration (IC50) was used as the measure of a compound's effectiveness in the assays. IC50 values were determined using the following logistic equation Y=min+(max−min)/(1+(X/IC50^−hillslpoe), where Y is the value at the compound concentration, X. The concentration response curve fitting was conducted using GraphPad Prism version 6.00 software.
ALPK1 kinase activity was measured in an in vitro assay using ADP-Heptose as the ALPK1 ligand and activator of its kinase activity and TIFA protein as the ALPK1 phosphorylation substrate. Since phosphorylated TIFA proteins oligomerize, Homogeneous Time-Resolved Fluorescence (HTRF) was used to measure protein:protein interaction between HA-tagged TIFA proteins as an indicator of TIFA phosphorylation.
In brief, dose-response studies were performed with HEK293 cells cultured in Dulbecco's Modified Eagle Medium (DMEM) supplemented 10% fetal bovine serum (FBS, Hyclone™) containing antibiotics (pen/strep, G418) in 384-well assay plates. Each well contained 0.1 mg TIFA, ALPK1 (2 nM final concentration in reaction mixture) and kinase buffer (100 mM of HEPES pH 7.4, 4 mM DTT, 40 mM MgCl2, 20 mM of β-Glycerol phosphate disodium salt, 0.4 mM of Na3VO4, 0.16 mg/mL). Titrations of the test compounds were prepared in dimethylsulphoxide (DMSO). The reaction was initiated by addition of ATP and ADP-Heptose.
For HTRF, samples were incubated with a Tb cryptate-labeled anti-HA antibody for capturing HA-tagged proteins according to the manufacturer's instructions (PerkinElmer™, CisBio™) and the fluorescence signal was quantified (Tecan Infinite F NANO+). HTRF signals were calculated as the HTRF ratio (ratio of fluorescence measured at 665 nm and 620 nm)×104 (thereby using the signal at 620 nm as an internal standard).
IC50 values were determined using 3- or 4-parameter logistic equation using GraphPad Prism version 6.00. The reference compound, A027, was used as a positive control for each plate.
In general terms: Time-resolved FRET reads energy transfer from a long-lived donor to a nearby acceptor.

[1] abbreviates: ALPK1 2 nM, TIFA substrate, ADP-Heptose activator, HTRF readout.

Sequence of ALPK1 (Q96QP1 whole entry): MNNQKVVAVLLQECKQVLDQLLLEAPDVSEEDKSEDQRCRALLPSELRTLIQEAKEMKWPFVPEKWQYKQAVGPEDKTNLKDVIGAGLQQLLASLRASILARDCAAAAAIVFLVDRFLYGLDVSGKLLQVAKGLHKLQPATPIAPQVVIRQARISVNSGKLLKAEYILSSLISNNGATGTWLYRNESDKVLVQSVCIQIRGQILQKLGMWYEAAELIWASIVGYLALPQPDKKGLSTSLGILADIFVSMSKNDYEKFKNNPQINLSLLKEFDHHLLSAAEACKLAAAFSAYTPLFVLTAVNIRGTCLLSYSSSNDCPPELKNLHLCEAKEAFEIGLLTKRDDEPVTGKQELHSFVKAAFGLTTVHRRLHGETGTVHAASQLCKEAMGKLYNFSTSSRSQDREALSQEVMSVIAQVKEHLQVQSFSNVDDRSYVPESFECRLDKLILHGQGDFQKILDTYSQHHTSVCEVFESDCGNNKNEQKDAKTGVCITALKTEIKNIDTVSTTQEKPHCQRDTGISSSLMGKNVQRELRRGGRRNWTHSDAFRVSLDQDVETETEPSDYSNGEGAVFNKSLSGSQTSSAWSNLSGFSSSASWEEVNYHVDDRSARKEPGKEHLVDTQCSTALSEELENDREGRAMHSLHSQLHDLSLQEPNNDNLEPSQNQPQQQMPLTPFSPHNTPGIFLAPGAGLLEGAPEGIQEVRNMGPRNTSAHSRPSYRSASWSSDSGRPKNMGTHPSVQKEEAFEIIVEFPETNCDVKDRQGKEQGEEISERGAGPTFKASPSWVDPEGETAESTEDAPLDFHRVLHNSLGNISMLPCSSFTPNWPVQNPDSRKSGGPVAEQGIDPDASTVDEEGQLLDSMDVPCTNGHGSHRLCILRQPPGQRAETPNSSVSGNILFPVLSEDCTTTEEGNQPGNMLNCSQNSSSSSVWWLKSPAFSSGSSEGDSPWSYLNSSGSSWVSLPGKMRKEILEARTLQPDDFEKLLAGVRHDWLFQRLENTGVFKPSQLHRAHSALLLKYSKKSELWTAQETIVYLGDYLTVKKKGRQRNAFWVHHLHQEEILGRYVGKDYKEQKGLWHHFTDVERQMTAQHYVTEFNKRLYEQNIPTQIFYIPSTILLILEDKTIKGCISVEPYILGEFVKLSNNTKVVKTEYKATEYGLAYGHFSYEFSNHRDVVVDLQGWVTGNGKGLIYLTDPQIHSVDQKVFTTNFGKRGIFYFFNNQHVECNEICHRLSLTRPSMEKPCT

`COc1ccc(C(C)(C)c2csc(NC(=O)c3ccc(CN4CCN(C)CC4)cc3)n2)cc1` [Example B017, N-(4-(2-(4-methoxyphenyl)propan-2-yl)thiazol-2-yl)-4-((4-methylpiperazin-1-yl)methyl)benzamide] had an IC50 under setting [1] of 148 nM.
As for `COc1ccc(C(C)(C)c2csc(NC(=O)NCCCCN)c2)cc1` [Example A188, 1-(4-aminobutyl)-3-(4-(2-(4-methoxyphenyl)propan-2-yl)thiophen-2-yl)urea], the IC50 stood at 59 nM. In other words, the double-digit nanomolar range.
`C#CC(C)(c1ccc(OC(F)F)cc1)c1csc(NC(=O)c2c(F)cc(N3CCNCC3)cc2F)n1` (centres unmarked) [Example C033, N-(4-(2-(4-(difluoromethoxy)phenyl)but-3-yn-2-yl)thiazol-2-yl)-2,6-difluoro-4-(piperazin-1-yl)benzamide]: the concentration for half-maximal inhibition (IC50) under setting [1] worked out at 73 nM.
Take `C#C[C@](C)(c1ccc(OC)cc1)c1csc(NC(=O)N2CC(CO)C2)n1` [Example A255, (R)-3-(hydroxymethyl)-N-(4-(2-(4-methoxyphenyl)but-3-yn-2-yl)thiazol-2-yl)azetidine-1-carboxamide]: it took 688 nM to reach half-maximal inhibition (IC50). This counts as sub-micromolar.
Still for that read-out and setting: in the case of `COc1ccc(CNC(=O)Nc2nc(C(C)(C)c3ccc(Br)cc3)cs2)cc1F` [Example A107, 1-(4-(2-(4-bromophenyl)propan-2-yl)thiazol-2-yl)-3-(3-fluoro-4-methoxybenzyl)urea] it was 216 nM; in that of `C#CC(C)(c1ccc(Cl)cc1)c1csc(NC(=O)N(C)CCO)n1` (centres unmarked) [Example A266, 3-(4-(2-(4-chlorophenyl)but-3-yn-2-yl)thiazol-2-yl)-1-(2-hydroxyethyl)-1-methylurea], 546 nM.
On to `C#C[C@](C)(c1ccc(Cl)cc1)c1csc(NC(=O)c2c(F)cc(N3CCN(C)CC3)cc2F)n1` [Example C010, (R)-N-(4-(2-(4-chlorophenyl)but-3-yn-2-yl)thiazol-2-yl)-2,6-difluoro-4-(4-methylpiperazin-1-yl)benzamide], for which the IC50 under setting [1] was 56 nM.
Consider `COc1ccc(C(C)(C)c2csc(NC(=O)NCCCC(=O)NC3CCNCC3)n2)cc1` [Example A071, 4-(3-(4-(2-(4-methoxyphenyl)propan-2-yl)thiazol-2-yl)ureido)-N-(piperidin-4-yl)butanamide], for which inhibition was half-maximal at 64 nM (IC50).
The same measure, in the same setting: for `O=C(NCc1cnc(N2CCNCC2)nc1)Nc1nc(C2(c3ccc(Br)cc3)CCCC2)cs1` [Example A180, 1-(4-(1-(4-bromophenyl)cyclopent-yl)thiazol-2-yl)-3-((2-(piperazin-1-yl)pyrimidin-5-yl)methyl)urea] the value was 45 nM.
As for `O=C(Nc1nc(C2(c3ccc(Br)cc3)CCCC2)cs1)c1c(F)cc(N2CCNCC2)cc1F` [Example C026, N-(4-(1-(4-bromophenyl)cyclopentyl)thiazol-2-yl)-2,6-difluoro-4-(piperazin-1-yl)benzamide], the IC50 under setting [1] amounted to 437 nM.
`CC(C)(c1ccc(Br)cc1)c1csc(NC(=O)NCc2ccc(N3CCCNCC3)c(F)c2)n1` [Example A197, 1-(4-(1,4-diazepan-1-yl)-3-fluorobenzyl)-3-(4-(2-(4-bromophenyl)propan-2-yl)thiazol-2-yl)urea] registered an IC50 of 67 nM.
With `C#C[C@@](C)(c1csc(NC(=O)c2c(F)cc(N3CCNCC3)cc2F)n1)c1ccc(Cl)cc1F` (stereo in doubt) [Example C043, N-(4-(2-(4-chloro-2-fluorophenyl)but-3-yn-2-yl)thiazol-2-yl)-2,6-difluoro-4-(piperazin-1-yl)benzamide], the IC50 under setting [1] stood at 285 nM.
As to `C#CC(C)(c1ccc(Cl)cc1)c1csc(NC(C)=O)n1` (centres unmarked) [Example D004, N-(4-(2-(4-chlorophenyl)but-3-yn-2-yl)thiazol-2-yl)acetamide], inhibition under setting [1] was half-maximal at 18 nM (IC50).
Still for that read-out and setting: in the case of `COCCOc1cc(C(=O)Nc2nc(C(C)(C)c3ccc(OC)cc3)cs2)ccc1N1CCNCC1` [Example B057, 3-(2-methoxyethoxy)-N-(4-(2-(4-methoxyphenyl)propan-2-yl)thiazol-2-yl)-4-(piperazin-1-yl)benzamide hydrochloride] it was 103 nM.
The same measure, in the same setting: for `C#C[C@@](C)(c1ccc(F)cc1)c1csc(NC(=O)c2c(F)cc(N3CCC(N)C3)cc2F)n1` (stereo in doubt) [Example B090, 4-(3-aminopyrrolidin-1-yl)-2,6-difluoro-N-(4-(2-(4-fluorophenyl)but-3-yn-2-yl)thiazol-2-yl)benzamide] the value was 107 nM; for `COCC(C)(c1ccc(Br)cc1)c1csc(NC(=O)c2c(F)cc(N3CCNCC3)cc2F)n1` (centres unmarked) [Example C014, N-(4-(2-(4-bromophenyl)-1-methoxypropan-2-yl)thiazol-2-yl)-2,6-difluoro-4-(piperazin-1-yl)benzamide], 13 nM.
In the case of `CC(c1ccc(Cl)cc1)(c1csc(NC(=O)c2c(F)cc(N3CCNCC3)cc2F)n1)C1CC1` (centres unmarked) [Example C045, N-(4-(1-(4-chlorophenyl)-1-cyclopropylethyl)thiazol-2-yl)-2,6-difluoro-4-(piperazin-1-yl)benzamide], 25 nM corresponded to half-maximal inhibition under setting [1] (IC50).
Same read-out and setting: for `C#CC(C)(c1ccc(Cl)cc1)c1coc(NC(=O)c2c(F)cc(N3CCNCC3)cc2F)n1` (centres unmarked) [Example C051, N-(4-(2-(4-chlorophenyl)but-3-yn-2-yl)oxazol-2-yl)-2,6-difluoro-4-(piperazin-1-yl)benzamide] the value was 26 nM.
The compound `COc1ccc(C(C)(C)c2csc(NC(=O)NCc3ccc(N4CCNCC4)c(C(=O)N(C)C)c3)n2)cc1` [Example A185, 5-((3-(4-(2-(4-methoxyphenyl)propan-2-yl)thiazol-2-yl)ureido)methyl)-N,N-dimethyl-2-(piperazin-1-yl)benzamide] registered an IC50 of 56 nM.
For the compound `C#C[C@](C)(c1ccc(Cl)cc1)c1csc(NC(=O)c2c(F)cc(N3CCNCC3CO)cc2F)n1` (stereo in doubt) [Example B098, N-[4-[1-(4-chlorophenyl)-1-methyl-prop-2-ynyl]thiazol-2-yl]-2,6-difluoro-4-[2-(hydroxymethyl)piperazin-1-yl]benzamide], it took 20 nM to reach half-maximal inhibition under setting [1] (IC50).
Same read-out and setting: for `C#C[C@@](C)(c1ccc(F)cc1)c1csc(NC(=O)c2c(F)cc(N3CCC(N)C3)cc2F)n1` (stereo in doubt) [Example B091, 4-(3-aminopyrrolidin-1-yl)-2,6-difluoro-N-(4-(2-(4-fluorophenyl)but-3-yn-2-yl)thiazol-2-yl)benzamide] the value was 65 nM; for `COc1ccc(C(C)(C)c2csc(NC(=O)c3ccc(N4CCNCC4)c(OC)c3)n2)cc1` [Example B039, 3-methoxy-N-(4-(2-(4-methoxyphenyl)propan-2-yl)thiazol-2-yl)-4-(piperazin-1-yl)benzamide], 123 nM.
In the case of `CNC(=O)Nc1nc(C(C)(C)c2ccc(OC)cc2)cs1` [Example A143, 1-(4-(2-(4-methoxyphenyl)propan-2-yl)thiazol-2-yl)-3-methylurea], 53 nM corresponded to half-maximal inhibition (IC50).
Consider `C#C[C@@](C)(c1ccc(F)cc1)c1csc(NC(=O)c2ccc(N3CCNCC3CO)cc2)n1` (stereo in doubt) [Example B071, N-[4-[1-(4-fluorophenyl)-1-methyl-prop-2-ynyl]thiazol-2-yl]-4-[2-(hydroxymethyl)piperazin-1-yl]benzamide], for which the half-maximal inhibitory concentration (IC50) under setting [1] is 60 nM.
Regarding `C#CC(C)(c1ccc(Cl)cc1)c1csc(NC(=O)c2c(F)cc(N3CCNC(CO)C3)cc2F)n1` (centres unmarked) [Example B083, N-(4-(2-(4-chlorophenyl)but-3-yn-2-yl)thiazol-2-yl)-2,6-difluoro-4-(3-(hydroxymethyl)piperazin-1-yl)benzamide], it took 78 nM to reach half-maximal inhibition under setting [1] (IC50).
Same read-out and setting: in the case of `C#C[C@](C)(c1ccc(Cl)cc1)c1csc(NC(=O)c2ccc(N3CCNC(CO)C3)cc2)n1` (some centres unmarked) [Example B078, N-(4-(2-(4-chlorophenyl)but-3-yn-2-yl)thiazol-2-y1)-4-(3-(hydroxymethyl)piperazin-1-yl)benzamide] it was 169 nM; in that of `C#CC(C)(c1ccc(Cl)cc1)c1c[nH]c(NC(=O)c2c(F)cc(N3CCNCC3)cc2F)n1` (centres unmarked) [Example C052, N-(4-(2-(4-chlorophenyl)but-3-yn-2-yl)-1H-imidazol-2-yl)-2,6-difluoro-4-(piperazin-1-yl)benzamide], 44 nM.
Same read-out and setting: in the case of `C#CC(C)(c1ccc(Cl)cc1)c1csc(NC(=O)c2c(F)cc(N3CCN(C)CC3)cc2F)n1` (centres unmarked) [Example C009, N-(4-(2-(4-chlorophenyl)but-3-yn-2-yl)thiazol-2-yl)-2,6-difluoro-4-(4-methylpiperazin-1-yl)benzamide] it was 7 nM; in that of `C#CC(C)(c1ccc(Br)cc1)c1csc(NC(=O)C2CC(O)C2)n1` (centres unmarked) [Example D007, N-(4-(2-(4-bromophenyl)but-3-yn-2-yl)thiazol-2-yl)-3-hydroxycyclobutanecarboxamide], 55 nM.

In general, IC50 refers to the concentration that gives 50% inhibition. A high value points to a need for much substance.
